Experimental findings from patent publication US20190161516A1, “PROTEASOME INHIBITORS” (University of Kentucky Research Foundation, priority 2017, published 2019) are described below.

What is called IC50 is the concentration at which inhibition is half-maximal.

Test [1] addresses T1, LMP7/β5i (Homo sapiens, UniProt P20618+P28062).
T1 construct: purchased R&D Systems
Kind of test: Proteasome activity assay, purified 20S proteasome, Ac-ANW-AMC. The test is classed as biochemical. The protocol: Purified 20S human proteasomes (CP and IP, R&D Systems) were used to assess the in vitro inhibition of proteasome catalytic activity by LMP2 inhibitors. […] Reactions were initiated by the addition of fluorogenic substrates containing the AMC (7-amino-4-methylcoumarin) group. Specifically, the following substrates were used: Suc-LLVY-AMC (CT-L activity, 100 μM), Ac-PAL-AMC (LMP2, 100 μM), Ac-WLA-AMC (β5, 20 μM), Ac-nLPnLD-AMC (β1,100 μM), Ac-RLR-AMC (β2/2i, 20 μM), and Ac-ANW-AMC (β5i, 100 μM). The fluorescence of liberated AMC was measured over a period of 90 min at 360 and 460 nm on a SpectraMax M5 fluorescence plate reader (Molecular Devices). For the proteasome activity of brain tissues isolated from AD mice, tissues were homogenized in RIPA buffer (50 mM Tris Cl, pH 7.4, 150 mM NaCl, 5 mM EDTA, 1% Nonidet P-40, 1% sodium deoxycholate, 0.1% SDS, 1% aprotinin, 50 mM NaF) and sonicated. Samples were centrifuged for 40 min at 14,000×g (4° C.). Protein concentration was determined using the Bradford Assay according to the manufacturer's protocol. Finally, samples were loaded onto a 96-well plate followed by the addition of the substrate (Ac-PAL-AMC) at 37° C. Fluorescence was recorded for 90 min using a Synergy-HT (Bio Tek) plate reader.

The test system of test [2] is APPsw transgenic mouse (Tg2576) and LPS-induced mice (ICR strain). Kind of test: Morris water maze test in AD mouse models. Format: in vivo. The note with it: FIG. 12A-12D. On the procedure:
These two compounds were used to investigate the impacts of LMP2 inhibition on cognitive deficits in two animal models of human Alzheimer's disease (AD). In these AD models, AD develops by Aβ deposition (APPsw transgenic mouse) or lipopolysaccharide (LPS)-induced neuroinflammation. For the APPsw transgenic model, also known as Tg2576, 10-month old APPsw mice were treated i.p. with LMP2 inhibitors twice a week for 3 weeks. […] Once treatments were finished, Morris water maze test was performed. All mice were trained for three times a day for 5 days before the test. The escape latency and distance traveled were recorded on a daily-basis over a 5-day period. […] This supports that the efficacy of LMP2 inhibitors is mediated through LMP2 inhibition. One day after the completion of Morris water maze test, the ability of mouse to maintain memory was evaluated by probe trials. […] Sequentially, a step-through latency test was performed a day after the probe trial. […]
The learning trials were conducted over 5 days, with 4 trials per day, with three randomized starting points. […] Swimming pattern of each mouse was monitored and recorded by a camera mounted above the center of the pool, and the escape latency, escape distance and swimming speed were assessed by the SMART-LD program (Panlab, Spain). […]

In test [3] the test system is neuronal tissues from the brains of APPsw mice. Briefly: Cresyl violet staining of neuronal tissues. The test is classed as in vivo. The note with it: APPsw mouse model, FIG. 10. An excerpt: Since LMP2 inhibitors had no effects on Aβ or tau aggregation, we wondered if these compounds are simply protecting neurons from cell death caused by Aβ or LPS. To examine this, we performed Cresyl violet staining experiments on neuronal tissues isolated from the brains of APPsw mice.
Frozen brain tissues were cut into 30 μm sections by using cryostat microtome (Leica CM1850; Leica Microsystems, Korea). The pieces of brain were thoroughly washed with PBS to remove the excess fixative agent, and then transferred to gelatin coated slices and stained with 0.1% Cresyl violet (2-5 minutes) to identify cortical layers and cytoarchitectural features of isocortical region. Next, the sections were washed with distill water and dehydrated by using ascending grades of ethanol (50%, 70%, 90%, and 100%) for 2 min in each grade followed by a 1-min immersion in a 1:1 mixture of absolute alcohol and xylene. The sections were then rinsed with xylene for 5-10 min and mounted with mounting medium (CYTOSEAL™ XYL; Thermo Scientific, USA). The tissue was photographed (100×) in the same areas.

`CC(=O)NCC(=O)N1CCC[C@H]1C(=O)N[C@@H](Cc1ccccc1)C(=O)N[C@@H](CC(C)C)C(=O)[C@@]1(C)CO1` [YU102]: the IC50 in test [1] is more than 10 µM. For the same compound, the “cognitive deficits in the APPsw mice” value in test [2] is on record as “ameliorates cognitive deficits”. Moreover, the neuroprotective effects entry in test [3] is “no neuroprotective effects”.
